From patent publication US11078216B2, “Bisaryl amides as NRF2 activators” (GLAXOSMITHKLINE INTELLECTUAL PROPERTY DEVELOPMENT LIMITED, priority 2016, dated 2021)
Structures can show the parent of a compound that is named as a salt. Where two headings read alike, the source gives them in different places.

Tested on: NRF2 (NQO1 activity as marker for NRF2 activation), BEAS-2B cells
Experiment: BEAS-2B NQO1 MTT Assay
Assay type: cell-based
Description: NAD(P)H:quinone oxidoreductase 1 (NQO1), also called DT diaphorase, is a homodimeric FAD-containing enzyme that catalyzes obligatory NAD(P)H-dependent two-electron reductions of quinones and protects cells against the toxic and neoplastic effects of free radicals and reactive oxygen species arising from one-electron reductions. The transcription of NQO1 is finely regulated by NRF2, and thus NQO1 activity is a good marker for NRF2 activation. On day one, frozen BEAS-2B cells (ATCC) are thawed in a water bath, counted, and re-suspended at a concentration of 250,000 cells/mL. Fifty microliters of cells are plated in 384 well black clear-bottomed plates. Plates are incubated at 37° C., 5% CO2 overnight. On day two, plates are centrifuged and 50 nL of compound or controls are added to the cells. Plates are then incubated at 37° C., 5% CO2 for 48 hours. On day four, medium is aspirated from the plate and crude cell lysates are made by adding 13 uL of 1× Cell Signaling Technologies lysis buffer with 1 Complete, Mini, EDTA-free Protease Inhibitor Tablet (Roche) for each 10 mL of lysis buffer. After lysis plates are incubated for 20 minutes at room temperature. Two microliters of lysate are removed for use in Cell Titer Glo assay (Promega) and MTT cocktail is prepared (Prochaska et. al. 1998) for measurement of NQO1 activity. Fifty microliters of MTT cocktail is added to each well, plate is centrifuged, and analyzed on an Envision plate reader (Perkin Elmer) using Absorbance 570 nm label for 30 minutes. Product formation is measured kinetically and the EC50 of NQO1 specific activity induction is calculated by plotting the change in absorbance (Delta OD/min) versus the log of compound concentration followed by 3-parameter fitting.
EC50s<1 nM (+++++), EC50s 1 nM-10 nM (++++), EC50s 10 nM-100 nM (+++), EC50s 100 nM-1 uM (++), EC50s 1-10 uM (+), EC50s>10 uM (−), or were not determined (ND).

[1] = Homo sapiens, EC50 of NQO1 specific activity induction, 48 hours incubation, read-out: EC50

Structure (SMILES)	EC50 [1] [nM]	EC50 (Homo sapiens, in some determinations, read-out: EC50 values in some determinations) [nM]	EC50 (EC50 of NQO1 specific activity induction, 48 hours incubation, read-out: EC50) [nM]
CC[C@@H]1CN(Cc2cc([C@H](CC(=O)NCC3CCCO3)c3ccc4c(nnn4CC)c3C)ccc2C)S(=O)(=O)c2cccnc2O1 (stereo partly drawn) [Example 37, (3S)-3-(3-(((R)-4-Ethyl-1,1-dioxido-3,4-dihydro-2H-pyrido[2,3-b][1,4,5]oxathiazepin-2-yl)methyl)-4-methylphenyl)-3-(1-ethyl-4-methyl-1H-benzo[d][1,2,3]triazol-5-yl)-N-((tetrahydrofuran-2-yl)methyl)propanamide]	100 to 1000		
CC[C@@H]1CN(Cc2cc([C@H](CC(=O)NCCF)c3ccc4c(nnn4CC)c3C)ccc2C)S(=O)(=O)c2cccnc2O1 [Example 38, (S)-3-(3-(((R)-4-Ethyl-1,1-dioxido-3,4-dihydro-2H-pyrido[2,3-b][1,4,5]oxathiazepin-2-yl)methyl)-4-methylphenyl)-3-(1-ethyl-4-methyl-1H-benzo[d][1,2,3]triazol-5-yl)-N-(2-fluoroethyl)propanamide]	100 to 1000		
CC[C@@H]1CN(Cc2cc([C@H](CC(=O)NCC(=O)NC)c3ccc4c(nnn4CC)c3C)ccc2C)S(=O)(=O)c2cccnc2O1 [Example 39, (S)-3-(3-(((R)-4-Ethyl-1,1-dioxido-3,4-dihydro-2H-pyrido[2,3-b][1,4,5]oxathiazepin-2-yl)methyl)-4-methylphenyl)-3-(1-ethyl-4-methyl-1H-benzo[d][1,2,3]triazol-5-yl)-N-(2-(methylamino)-2-oxoethyl)propanamide]	1000 to 10000		
CCOCCNC(=O)C[C@@H](c1ccc(C)c(CN2C[C@@H](CC)Oc3ncccc3S2(=O)=O)c1)c1ccc2c(nnn2CC)c1C [Example 40, (S)-N-(2-Ethoxyethyl)-3-(3-(((R)-4-ethyl-1,1-dioxido-3,4-dihydro-2H-pyrido[2,3-b][1,4,5]oxathiazepin-2-yl)methyl)-4-methylphenyl)-3-(1-ethyl-4-methyl-1H-benzo[d][1,2,3]triazol-5-yl)propanamide]	100 to 1000		
CC[C@@H]1CN(Cc2cc([C@H](CC(=O)NCCOC)c3ccc4c(nnn4CC)c3C)ccc2C)S(=O)(=O)c2cccnc2O1 [Example 41, (S)-3-(3-(((R)-4-Ethyl-1,1-dioxido-3,4-dihydro-2H-pyrido[2,3-b][1,4,5]oxathiazepin-2-yl)methyl)-4-methylphenyl)-3-(1-ethyl-4-methyl-1H-benzo[d][1,2,3]triazol-5-yl)-N-(2-methoxyethyl)propanamide]	100 to 1000		
CC[C@@H]1CN(Cc2cc([C@H](CC(=O)NCC(=O)NC(C)C)c3ccc4c(nnn4CC)c3C)ccc2C)S(=O)(=O)c2cccnc2O1 [Example 42, (S)-3-(3-(((R)-4-Ethyl-1,1-dioxido-3,4-dihydro-2H-pyrido[2,3-b][1,4,5]oxathiazepin-2-yl)methyl)-4-methylphenyl)-3-(1-ethyl-4-methyl-1H-benzo[d][1,2,3]triazol-5-yl)-N-(2-(isopropylamino)-2-oxoethyl)propanamide]	1000 to 10000		
CC[C@@H]1CN(Cc2cc([C@H](CC(=O)NC(C)C(N)=O)c3ccc4c(nnn4CC)c3C)ccc2C)S(=O)(=O)c2cccnc2O1 (stereo partly drawn) [Example 43, (3S)—N-(1-Amino-1-oxopropan-2-yl)-3-(3-(((R)-4-ethyl-1,1-dioxido-3,4-dihydro-2H-pyrido[2,3-b][1,4,5]oxathiazepin-2-yl)methyl)-4-methylphenyl)-3-(1-ethyl-4-methyl-1H-benzo[d][1,2,3]triazol-5-yl)propanamide]	100 to 1000		
CC[C@@H]1CN(Cc2cc([C@H](CC(=O)NCCCC#N)c3ccc4c(nnn4CC)c3C)ccc2C)S(=O)(=O)c2cccnc2O1 [Example 44, (S)-N-(3-Cyanopropyl)-3-(3-(((R)-4-ethyl-1,1-dioxido-3,4-dihydro-2H-pyrido[2,3-b][1,4,5]oxathiazepin-2-yl)methyl)-4-methylphenyl)-3-(1-ethyl-4-methyl-1H-benzo[d][1,2,3]triazol-5-yl)propanamide]	100 to 1000		
CC[C@@H]1CN(Cc2cc([C@H](CC(=O)NCCNC(C)=O)c3ccc4c(nnn4CC)c3C)ccc2C)S(=O)(=O)c2cccnc2O1 [Example 45, (S)—N-(2-Acetamidoethyl)-3-(3-(((R)-4-ethyl-1,1-dioxido-3,4-dihydro-2H-pyrido[2,3-b][1,4,5]oxathiazepin-2-yl)methyl)-4-methylphenyl)-3-(1-ethyl-4-methyl-1H-benzo[d][1,2,3]triazol-5-yl)propanamide]	100 to 1000	< 0.17	
CC[C@@H]1CN(Cc2cc([C@@H](CC(=O)Nc3cccnc3)c3ccc4c(nnn4C)c3C)ccc2C)Cc2ncccc2O1 [Example 46, (R)-3-(1,4-Dimethyl-1H-benzo[d][1,2,3]triazol-5-yl)-3-(3-(((R)-2-ethyl-2,3-dihydropyrido[2,3-f][1,4]oxazepin-4(5H)-yl)methyl)-4-methylphenyl)-N-(pyridin-3-yl)propanamide, Formic Acid Salt]	1000 to 10000		
CC[C@@H]1CN(Cc2cc([C@H](CC(=O)Nc3cccnc3)c3ccc4c(nnn4C)c3C)ccc2C)Cc2ncccc2O1 [Example 47, (S)-3-(1,4-Dimethyl-1H-benzo[d][1,2,3]triazol-5-yl)-3-(3-(((R)-2-ethyl-2,3-dihydropyrido[2,3-f][1,4]oxazepin-4(5H)-yl)methyl)-4-methylphenyl)-N-(pyridin-3-yl)propanamide, Formic Acid Salt]	100 to 1000		
CCn1cc(CO[C@H](c2ccc(C)c(CN3C[C@@H](C)Cc4ccncc4S3(=O)=O)c2)C(C)(C)C(=O)Nc2cccnc2)nn1 [Example 48, (R)-3-((1-Ethyl-1H-1,2,3-triazol-4-yl)methoxy)-2,2-dimethyl-3-(4-methyl-3-(((S)-4-methyl-1,1-dioxido-4,5-dihydropyrido[4,3-f][1,2]thiazepin-2(3H)-yl)methyl)phenyl)-N-(pyridin-3-yl)propanamide, Formic Acid Salt]	100 to 1000		
CCn1cc(CO[C@H](c2ccc(C)c(CN3C[C@@H](C)Cc4ccccc4S3(=O)=O)c2)C(C)(C)C(=O)Nc2cccnc2)nn1 [Example 49, (R)-3-((1-Ethyl-1H-1,2,3-triazol-4-yl)methoxy)-2,2-dimethyl-3-(4-methyl-3-(((S)-4-methyl-1,1-dioxido-4,5-dihydrobenzo[f][1,2]thiazepin-2(3H)-yl)methyl)phenyl)-N-(pyridin-3-yl)propanamide, Formic acid salt]	100 to 1000		
CCCn1cc(CO[C@H](c2ccc(C)c(CN3C[C@@H](C)Cc4ncccc4S3(=O)=O)c2)C(C)(C)C(=O)Nc2cccnc2)nn1 [Example 50, (R)-2,2-Dimethyl-3-(4-methyl-3-(((S)-4-methyl-1,1-dioxido-4,5-dihydropyrido[2,3-f][1,2]thiazepin-2(3H)-yl)methyl)phenyl)-3-((1-propyl-1H-1,2,3-triazol-4-yl)methoxy)-N-(pyridin-3-yl)propanamide, Formic acid salt]	100 to 1000		
CCCn1cc(CO[C@H](c2ccc(C)c(CN3C[C@@H](C)Cc4ccccc4S3(=O)=O)c2)C(C)(C)C(=O)Nc2cccnc2)nn1 [Example 51, (R)-2,2-Dimethyl-3-(4-methyl-3-(((S)-4-methyl-1,1-dioxido-4,5-dihydrobenzo[f][1,2]thiazepin-2(3H)-yl(methyl)phenyl)-3-((1-propyl-1H-1,2,3-triazol-4-yl)methoxy)-N-(pyridin-3-yl)propanamide, Formic acid salt]			100 to 1000
